Measurements from patent publication US20120083522A1, “MODULATION OF INFLAMMATORY RESPONSES BY FACTOR XI” (Isis Pharmaceuitcals, inc., priority 2009, published 2012).

Experiments:
human Factor XI mRNA [1] = test: Dose-dependent inhibition in HepB3 cells, electroporation (Example 7); assay type: cell-based; details: approx. 16 h
Protocol: The gapmers were also transfected via electroporation and their dose dependent inhibition of human Factor XI mRNA was measured. Cells were plated at a density of 20,000 cells per well and transfected via electroporation with 41.15 nM, 123.457 nM, 370.37 nM, 1111.11 nM, 3333.33 nM, and 10,000 nM concentrations of antisense oligonucleotide, as specified in Table 15. After a treatment period of approximately 16 hours, RNA was isolated from the cells and human Factor XI mRNA levels were measured by quantitative real-time PCR. Human Factor XI primer probe set RTS 2966 was used to measure mRNA levels. Factor XI mRNA levels were adjusted according to total RNA content, as measured by RIBOGREEN®. Results are presented as percent inhibition of human Factor XI, relative to untreated control cells.

[2] = Tolerability in Sprague-Dawley rats: body and organ weight (Example 19); assay type: in vivo; details: 50 mg/kg s.c. twice per week for 6 weeks, change over weight at start of study
From the text: (§1) Urine samples were taken before the start of treatment.
The body weights are presented in Table 78 and are expressed as a percent change over the weights taken at the start of the study.

human Factor XI mRNA [3] = test: Dose-dependent inhibition in HepG2 cells, lipofectin (Example 5); assay type: cell-based; details: 16 hours
Protocol: (§2) Cells were plated at a density of 10,000 cells per well and transfected using lipofectin reagent with 2.34 nM, 4.69 nM, 9.375 nM, 18.75 nM, 37.5 nM, and 75 nM concentrations of antisense oligonucleotide, as specified in Table 11. After a treatment period of approximately 16 hours, RNA was isolated from the cells and human Factor XI mRNA levels were measured by quantitative real-time PCR. Human Factor XI primer probe set RTS 2966 was used to measure mRNA levels. Factor XI mRNA levels were adjusted according to total RNA content, as measured by RIBOGREEN®. Results are presented as percent inhibition of human Factor XI, relative to untreated control cells.

human Factor XI mRNA [4] = test: Dose-dependent inhibition in HepB3 cells, lipofectin (Example 7); assay type: cell-based; details: approx. 16 h
Protocol: as §2, with “4,000” for “10,000”, “2.3” for “2.34”, “4.7” for “4.69”, “9.4” for “9.375”, “14.” for “11.”, “of” for “of human”

[5] = Tolerability in Sprague-Dawley rats: kidney function (Example 19); assay type: in vivo; details: Sprague Dawley rats; for urine protein/creatinine ratio, After: after 50 mg/kg s.c. twice per week for 6 weeks; for urine protein/creatinine ratio, Before: before antisense oligonucleotide treatment
From the text: as §1

human Factor XI mRNA [6] = test: Dose-dependent inhibition in HepG2 cells, electroporation (Example 4); assay type: cell-based; details: 16 hours
Procedure, shortened: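 HepG2 cells electroporated with 0.7, 2.2, 6.7 or 20 μM antisense gapmer and harvested after ~16 h. Factor XI mRNA quantified by qRT-PCR (primer probe set RTS 2966), normalised to total RNA (RIBOGREEN). Reported as percent inhibition versus untreated control cells.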

human Factor XI mRNA [7] = test: Dose-dependent inhibition in cyno primary hepatocytes, electroporation (Example 6); assay type: cell-based, cynomolgus monkey; details: approx. 16 h
Protocol: Cells were plated at a density of 35,000 cells per well and transfected via electroporation with 0.74 nM, 2.2 nM, 6.7 nM, 20 nM, 60 nM, and 180 nM concentrations of antisense oligonucleotide, as specified in Table 13. After a treatment period of approximately 16 hours, RNA was isolated from the cells and human Factor XI mRNA levels were measured by quantitative real-time PCR. Human Factor XI primer probe set RTS 2966 was used to measure mRNA levels. Factor XI mRNA levels were adjusted according to total RNA content, as measured by RIBOGREEN®. Results are presented as percent inhibition of human Factor XI, relative to untreated control cells.

human Factor XI mRNA [8] = test: Dose-dependent inhibition in HepG2 cells, lipofectin (Example 4); assay type: cell-based; details: 16 hours
Procedure, shortened: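 HepG2 cells at 10,000 per well were lipofectin-transfected with 9.375, 18.75, 37.5 or 75 nM antisense oligonucleotide for about 16 h. Factor XI mRNA was quantified by real-time PCR (primer probe set RTS 2966) and normalised to RIBOGREEN total RNA. Values are percent inhibition versus untreated cells.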

human Factor XI mRNA [9] = test: Dose-dependent inhibition in HepG2 cells, electroporation (Example 5); assay type: cell-based; details: approx. 16 h, relative to untreated control cells
Protocol: The gapmers were also transfected via electroporation and their dose dependent inhibition of human Factor XI mRNA was measured. Cells were plated at a density of 20,000 cells per well and transfected via electroporation with 625 nM, 1250 nM, 2500 nM, 5,000 nM, 10,000 nM, and 20,000 nM concentrations of antisense oligonucleotide, as specified in Table 12. After a treatment period of approximately 16 hours, RNA was isolated from the cells and human Factor XI mRNA levels were measured by quantitative real-time PCR. Human Factor XI primer probe set RTS 2966 was used to measure mRNA levels. Factor XI mRNA levels were adjusted according to total RNA content, as measured by RIBOGREEN®. Results are presented as percent inhibition of human Factor XI, relative to untreated control cells.

416826 (antisense ATGCCCTTCATGTCTAGGTC; 5-10-5 gapmer, wing sugar chemistry not given here, further chemistry not given here) [compound 416826]
percent inhibition of human Factor XI mRNA (human Factor XI mRNA [1]; 41.15 nM): 0% | percent inhibition of human Factor XI mRNA (human Factor XI mRNA [1]; 123.457 nM): 0% | percent inhibition of human Factor XI mRNA (human Factor XI mRNA [1]; 370.37 nM): 34% | percent inhibition of human Factor XI mRNA (human Factor XI mRNA [1]; 1111.11 nM): 61% | percent inhibition of human Factor XI mRNA (human Factor XI mRNA [1]; 3333.33 nM): 87% | percent inhibition of human Factor XI mRNA (human Factor XI mRNA [1]; 10000 nM): 92% | Percent change in Body weight [2]: −40% | percent inhibition of human Factor XI mRNA, relative to untreated control cells (human Factor XI mRNA [3]; 2.34 nM): 15% | percent inhibition of human Factor XI mRNA, relative to untreated control cells (human Factor XI mRNA [3]; 4.69 nM): 22% | percent inhibition of human Factor XI mRNA, relative to untreated control cells (human Factor XI mRNA [3]; 9.375 nM): 32% | percent inhibition of human Factor XI mRNA, relative to untreated control cells (human Factor XI mRNA [3]; 18.75 nM): 54% | percent inhibition of human Factor XI mRNA, relative to untreated control cells (human Factor XI mRNA [3]; 37.5 nM): 76% | percent inhibition of human Factor XI mRNA, relative to untreated control cells (human Factor XI mRNA [3]; 75 nM): 90% | percent inhibition of human Factor XI mRNA (human Factor XI mRNA [4]; 2.3 nM): 16% | percent inhibition of human Factor XI mRNA (human Factor XI mRNA [4]; 4.7 nM): 28% | percent inhibition of human Factor XI mRNA (human Factor XI mRNA [4]; 9.4 nM): 38% | percent inhibition of human Factor XI mRNA (human Factor XI mRNA [4]; 18.75 nM): 55% | percent inhibition of human Factor XI mRNA (human Factor XI mRNA [4]; 37.5 nM): 64% | percent inhibition of human Factor XI mRNA (human Factor XI mRNA [4]; 75 nM): 66% | urine protein/creatinine ratio, After [5]: 11.4 | urine protein/creatinine ratio, Before [5]: 1.0 | percent inhibition of Factor XI mRNA, relative to untreated control cells (human Factor XI mRNA [6]; 0.7 μM): 2% | percent inhibition of Factor XI mRNA, relative to untreated control cells (human Factor XI mRNA [6]; 2.2 μM): 47% | percent inhibition of Factor XI mRNA, relative to untreated control cells (human Factor XI mRNA [6]; 6.7 μM): 86% | percent inhibition of Factor XI mRNA, relative to untreated control cells (human Factor XI mRNA [6]; 20 μM): 82% | percent inhibition of human Factor XI mRNA (human Factor XI mRNA [7]; 0.74 nM): 13% | percent inhibition of human Factor XI mRNA (human Factor XI mRNA [7]; 2.2 nM): 24% | percent inhibition of human Factor XI mRNA (human Factor XI mRNA [7]; 6.7 nM): 34% | percent inhibition of human Factor XI mRNA (human Factor XI mRNA [7]; 20 nM): 67% | percent inhibition of human Factor XI mRNA (human Factor XI mRNA [7]; 60 nM): 69% | percent inhibition of human Factor XI mRNA (human Factor XI mRNA [7]; 180 nM): 71% | percent inhibition of Factor XI mRNA, relative to untreated control cells (human Factor XI mRNA [8]; 9.375 nM): 8% | percent inhibition of Factor XI mRNA, relative to untreated control cells (human Factor XI mRNA [8]; 18.75 nM): 36% | percent inhibition of Factor XI mRNA, relative to untreated control cells (human Factor XI mRNA [8]; 37.5 nM): 58% | percent inhibition of Factor XI mRNA, relative to untreated control cells (human Factor XI mRNA [8]; 75 nM): 84% | percent inhibition of human Factor XI mRNA (human Factor XI mRNA [9]; 625 nM): 67% | percent inhibition of human Factor XI mRNA (human Factor XI mRNA [9]; 1250 nM): 82% | percent inhibition of human Factor XI mRNA (human Factor XI mRNA [9]; 2500 nM): 89% | percent inhibition of human Factor XI mRNA (human Factor XI mRNA [9]; 5000 nM): 92% | percent inhibition of human Factor XI mRNA (human Factor XI mRNA [9]; 10000 nM): 95% | percent inhibition of human Factor XI mRNA (human Factor XI mRNA [9]; 20000 nM): 97%

416892 (antisense GCCCTTCATGTCTAGGTCCA; 3-14-3 chimeric gapmer, wing sugar chemistry not given here, further chemistry not given here) [compound 416892]
percent inhibition of human Factor XI mRNA (human Factor XI mRNA [1]; 41.15 nM): 9% | percent inhibition of human Factor XI mRNA (human Factor XI mRNA [1]; 123.457 nM): 12% | percent inhibition of human Factor XI mRNA (human Factor XI mRNA [1]; 370.37 nM): 28% | percent inhibition of human Factor XI mRNA (human Factor XI mRNA [1]; 1111.11 nM): 65% | percent inhibition of human Factor XI mRNA (human Factor XI mRNA [1]; 3333.33 nM): 89% | percent inhibition of human Factor XI mRNA (human Factor XI mRNA [1]; 10000 nM): 98% | Percent change in Body weight [2]: −39% | percent inhibition of human Factor XI mRNA, relative to untreated control cells (human Factor XI mRNA [3]; 2.34 nM): 14% | percent inhibition of human Factor XI mRNA, relative to untreated control cells (human Factor XI mRNA [3]; 4.69 nM): 34% | percent inhibition of human Factor XI mRNA, relative to untreated control cells (human Factor XI mRNA [3]; 9.375 nM): 49% | percent inhibition of human Factor XI mRNA, relative to untreated control cells (human Factor XI mRNA [3]; 18.75 nM): 70% | percent inhibition of human Factor XI mRNA, relative to untreated control cells (human Factor XI mRNA [3]; 37.5 nM): 84% | percent inhibition of human Factor XI mRNA, relative to untreated control cells (human Factor XI mRNA [3]; 75 nM): 93% | percent inhibition of human Factor XI mRNA (human Factor XI mRNA [4]; 2.3 nM): 28% | percent inhibition of human Factor XI mRNA (human Factor XI mRNA [4]; 4.7 nM): 34% | percent inhibition of human Factor XI mRNA (human Factor XI mRNA [4]; 9.4 nM): 50% | percent inhibition of human Factor XI mRNA (human Factor XI mRNA [4]; 18.75 nM): 68% | percent inhibition of human Factor XI mRNA (human Factor XI mRNA [4]; 37.5 nM): 82% | percent inhibition of human Factor XI mRNA (human Factor XI mRNA [4]; 75 nM): 72% | urine protein/creatinine ratio, After [5]: 21.3 | urine protein/creatinine ratio, Before [5]: 0.8 | percent inhibition of Factor XI mRNA, relative to untreated control cells (human Factor XI mRNA [6]; 0.7 μM): 14% | percent inhibition of Factor XI mRNA, relative to untreated control cells (human Factor XI mRNA [6]; 2.2 μM): 52% | percent inhibition of Factor XI mRNA, relative to untreated control cells (human Factor XI mRNA [6]; 6.7 μM): 82% | percent inhibition of Factor XI mRNA, relative to untreated control cells (human Factor XI mRNA [6]; 20 μM): 92% | percent inhibition of human Factor XI mRNA (human Factor XI mRNA [7]; 0.74 nM): 20% | percent inhibition of human Factor XI mRNA (human Factor XI mRNA [7]; 2.2 nM): 20% | percent inhibition of human Factor XI mRNA (human Factor XI mRNA [7]; 6.7 nM): 43% | percent inhibition of human Factor XI mRNA (human Factor XI mRNA [7]; 20 nM): 62% | percent inhibition of human Factor XI mRNA (human Factor XI mRNA [7]; 60 nM): 88% | percent inhibition of human Factor XI mRNA (human Factor XI mRNA [7]; 180 nM): 92% | percent inhibition of Factor XI mRNA, relative to untreated control cells (human Factor XI mRNA [8]; 9.375 nM): 16% | percent inhibition of Factor XI mRNA, relative to untreated control cells (human Factor XI mRNA [8]; 18.75 nM): 50% | percent inhibition of Factor XI mRNA, relative to untreated control cells (human Factor XI mRNA [8]; 37.5 nM): 70% | percent inhibition of Factor XI mRNA, relative to untreated control cells (human Factor XI mRNA [8]; 75 nM): 85% | percent inhibition of human Factor XI mRNA (human Factor XI mRNA [9]; 625 nM): 66% | percent inhibition of human Factor XI mRNA (human Factor XI mRNA [9]; 1250 nM): 86% | percent inhibition of human Factor XI mRNA (human Factor XI mRNA [9]; 2500 nM): 96% | percent inhibition of human Factor XI mRNA (human Factor XI mRNA [9]; 5000 nM): 97% | percent inhibition of human Factor XI mRNA (human Factor XI mRNA [9]; 10000 nM): 100% | percent inhibition of human Factor XI mRNA (human Factor XI mRNA [9]; 20000 nM): 100%
